Reference: patent publication US20160074291A1, “ANTI-AGING SKIN CARE COMPOSITIONS AND REGIMENS” (The Procter & Gamble Company, priority 2014, published 2016)

Tests used:
skin barrier formation = test: Eigengene analysis of younger-appearance genes, skin barrier; type: cell-based; settings: cultured human keratinocytes
[1] = test system: "Clear and Detox" module genes; test: Eigengene analysis of "Clear and Detox" co-expression module; settings: FIG. 8
[2] = test system: "Repair and Rebuild" associated genes; test: Eigengene analysis of "Repair and Rebuild" co-expression module; settings: 301 genes, FIG. 9

## palmitoyl-lysine-threonine [Pal-KT]
Skin barrier formation
  effects relating to successful aging in skin barrier formation: Effects relating to successful aging were also identified
[1]
  effect on "Clear and Detox" eigengene: significantly up-regulates

## palmitoyl-lysine-threonine-threonine-lysine-serine [Pal-KTTKS]
[2]
  effect on "Repair and Rebuild" eigengene: significantly up-regulate
